{
  "source": "patent US20130005568A1",
  "about": "“SAFENED HERBICIDAL MIXTURES” (E.I. DU PONT DE NEMOURS AND COMPANY, priority 2011, published 2013)",
  "key": {"[1]": {"system": "Pioneer 39K40 hybrid maize", "experiment": "Test C: visual plant response rating, postemergence acetohydroxy acid synthase-inhibiting herbicides alone and with Compound 1", "assay_type": "in vivo, Zea mays L. spp. indentata Sturt.", "settings": "greenhouse, two weeks, 0-100 scale", "protocol": "(§1) For all of the following biological tests, plant response ratings were based on a 0-100 scale where zero is growth equivalent to that of untreated plants (no plant response) and 100 represents no additional growth occurring after herbicide treatment.\nHerbicide mixtures were dissolved/dispersed in a non-phytotoxic liquid carrier and were sprayed postemergence to Pioneer 39K40 hybrid maize (Zea mays L. spp. indentata Sturt.) in the third collar growth stage (extended leaf height was 40-60 cm). Treated plants were grown under greenhouse conditions for two weeks before visual evaluations of plant responses were recorded."}, "[2]": {"system": "blackgrass", "experiment": "Test F: preemergence plant response rating", "assay_type": "in vivo, Alopecurus myosuroides Huds", "settings": "blackgrass, preemergence, greenhouse, three weeks, 0-100 scale", "description": "as §1\n(§2) Herbicide mixtures were formulated, dissolved/dispersed in water, and sprayed preemergence to the crops: winter wheat (Triticum aestivum L.) and winter barley (Hordeum vulgare L.), and the weed: blackgrass (Alopecurus myosuroides Huds). Treated plants were grown under greenhouse conditions for three weeks before visual evaluations of plant responses were recorded."}, "[3]": {"system": "winter barley", "experiment": "Test F: preemergence plant response rating", "assay_type": "in vivo, Hordeum vulgare L.", "settings": "winter barley, preemergence, greenhouse, three weeks, 0-100 scale", "description": "as §1, §2"}, "[4]": {"system": "winter barley", "experiment": "Test E: postemergence plant response rating", "assay_type": "in vivo, Hordeum vulgare L.", "settings": "winter barley, postemergence, greenhouse, two weeks, 0-100 scale", "description": "as §1\n(§3) Herbicide mixtures were formulated, dissolved/dispersed in water containing 0.25% non-ionic surfactant, sprayed postemergence to the crops: winter wheat (Triticum aestivum L.), spring wheat (Triticum aestivum L.), winter barley (Hordeum vulgare L.) and spring barley (Hordeum vulgare L.), and the weeds: blackgrass (Alopecurus myosuroides Huds.), lambsquarters (Chenopodium album L.) and pigweed (Amaranthus retroflexus L.). Treated plants were grown under greenhouse conditions for two weeks before visual evaluations of plant responses were recorded."}, "[5]": {"system": "spring barley", "experiment": "Test E: postemergence plant response rating", "assay_type": "in vivo, Hordeum vulgare L.", "settings": "spring barley, postemergence, greenhouse, two weeks, 0-100 scale", "description": "as §1, §3"}, "[6]": {"system": "pigweed", "experiment": "Test E: postemergence plant response rating", "assay_type": "in vivo, Amaranthus retroflexus L.", "settings": "pigweed, postemergence, greenhouse, two weeks, 0-100 scale", "description": "as §1, §3"}, "[7]": {"system": "winter wheat", "experiment": "Test E: postemergence plant response rating", "assay_type": "in vivo, Triticum aestivum L.", "settings": "winter wheat, postemergence, greenhouse, two weeks, 0-100 scale", "description": "as §1, §3"}, "[8]": {"system": "spring wheat", "experiment": "Test E: postemergence plant response rating", "assay_type": "in vivo, Triticum aestivum L.", "settings": "spring wheat, postemergence, greenhouse, two weeks, 0-100 scale", "description": "as §1, §3"}, "[9]": {"system": "winter wheat", "experiment": "Test F: preemergence plant response rating", "assay_type": "in vivo, Triticum aestivum L.", "settings": "winter wheat, preemergence, greenhouse, three weeks, 0-100 scale", "description": "as §1, §2"}, "[10]": {"system": "blackgrass", "experiment": "Test E: postemergence plant response rating", "assay_type": "in vivo, Alopecurus myosuroides Huds.", "settings": "blackgrass, postemergence, greenhouse, two weeks, 0-100 scale", "description": "as §1, §3"}, "[11]": {"system": "lambsquarters", "experiment": "Test E: postemergence plant response rating", "assay_type": "in vivo, Chenopodium album L.", "settings": "lambsquarters, postemergence, greenhouse, two weeks, 0-100 scale", "description": "as §1, §3"}, "[12]": {"settings": "herbicide 32 g ai/ha + Compound 1 125 g ai/ha"}, "[13]": {"settings": "herbicide 64 g ai/ha + Compound 1 125 g ai/ha"}, "[14]": {"settings": "herbicide 10 g ai/ha + Compound 1 125 g ai/ha"}, "[15]": {"settings": "herbicide 20 g ai/ha + Compound 1 125 g ai/ha"}, "[16]": {"settings": "herbicide 17.5 g ai/ha + Compound 1 125 g ai/ha"}, "[17]": {"settings": "herbicide 35 g ai/ha + Compound 1 125 g ai/ha"}},
  "data": [
    {"compound": "CCOC(=O)c1ccccc1S(=O)(=O)NC(=O)Nc1nc(Cl)cc(OC)n1", "note": "[Chlorimuron-ethyl, chlorimuron-ethyl]", "values": [
      {"measurement": "Observed Response, Herbicide mixture with Compound 1", "setting": "[1]; herbicide 8 g ai/ha + Compound 1 125 g ai/ha", "result": 53},
      {"measurement": "Observed Response, Herbicide alone", "setting": "[1]; herbicide 8 g ai/ha", "result": 96}
    ]},
    {"compound": "COC(=O)c1ccc(C(F)(F)F)nc1S(=O)(=O)NC(=O)Nc1nc(OC)cc(OC)n1", "note": "[Flupyrsulfuron-methyl-sodium, flupyrsulfuron-methyl-sodium]", "values": [
      {"measurement": "Observed Response, Herbicide mixture with Compound 1", "setting": "[2]; [12]", "result": 90},
      {"measurement": "Observed Response, Herbicide alone", "setting": "[2]; herbicide 32 g ai/ha", "result": 95},
      {"measurement": "Observed Response, Herbicide mixture with Compound 1", "setting": "[2]; [13]", "result": 97},
      {"measurement": "Observed Response, Herbicide alone", "setting": "[2]; herbicide 64 g ai/ha", "result": 95},
      {"measurement": "Observed Response, Herbicide mixture with Compound 1", "setting": "[3]; [12]", "result": 40},
      {"measurement": "Observed Response, Herbicide alone", "setting": "[3]; herbicide 32 g ai/ha", "result": 75},
      {"measurement": "Observed Response, Herbicide mixture with Compound 1", "setting": "[3]; [13]", "result": 35},
      {"measurement": "Observed Response, Herbicide alone", "setting": "[3]; herbicide 64 g ai/ha", "result": 90},
      {"measurement": "Observed Response, Herbicide mixture with Compound 1", "setting": "[4]; [14]", "result": 12},
      {"measurement": "Observed Response, Herbicide alone", "setting": "[4]; herbicide 10 g ai/ha", "result": 42},
      {"measurement": "Observed Response, Herbicide mixture with Compound 1", "setting": "[4]; [15]", "result": 27},
      {"measurement": "Observed Response, Herbicide alone", "setting": "[4]; herbicide 20 g ai/ha", "result": 42},
      {"measurement": "Observed Response, Herbicide mixture with Compound 1", "setting": "[5]; [14]", "result": 23},
      {"measurement": "Observed Response, Herbicide alone", "setting": "[5]; herbicide 10 g ai/ha", "result": 47},
      {"measurement": "Observed Response, Herbicide mixture with Compound 1", "setting": "[5]; [15]", "result": 43},
      {"measurement": "Observed Response, Herbicide alone", "setting": "[5]; herbicide 20 g ai/ha", "result": 53},
      {"measurement": "Observed Response, Herbicide mixture with Compound 1", "setting": "[6]; [14]", "result": 96},
      {"measurement": "Observed Response, Herbicide alone", "setting": "[6]; herbicide 10 g ai/ha", "result": 100},
      {"measurement": "Observed Response, Herbicide mixture with Compound 1", "setting": "[6]; [15]", "result": 97},
      {"measurement": "Observed Response, Herbicide alone", "setting": "[6]; herbicide 20 g ai/ha", "result": 99},
      {"measurement": "Observed Response, Herbicide mixture with Compound 1", "setting": "[7]; [14]", "result": 0},
      {"measurement": "Observed Response, Herbicide alone", "setting": "[7]; herbicide 10 g ai/ha", "result": 17},
      {"measurement": "Observed Response, Herbicide mixture with Compound 1", "setting": "[7]; [15]", "result": 0},
      {"measurement": "Observed Response, Herbicide alone", "setting": "[7]; herbicide 20 g ai/ha", "result": 18},
      {"measurement": "Observed Response, Herbicide mixture with Compound 1", "setting": "[8]; [14]", "result": 3},
      {"measurement": "Observed Response, Herbicide alone", "setting": "[8]; herbicide 10 g ai/ha", "result": 18},
      {"measurement": "Observed Response, Herbicide mixture with Compound 1", "setting": "[8]; [15]", "result": 0},
      {"measurement": "Observed Response, Herbicide alone", "setting": "[8]; herbicide 20 g ai/ha", "result": 22},
      {"measurement": "Observed Response, Herbicide mixture with Compound 1", "setting": "[9]; [12]", "result": 10},
      {"measurement": "Observed Response, Herbicide alone", "setting": "[9]; herbicide 32 g ai/ha", "result": 30},
      {"measurement": "Observed Response, Herbicide mixture with Compound 1", "setting": "[9]; [13]", "result": 33},
      {"measurement": "Observed Response, Herbicide alone", "setting": "[9]; herbicide 64 g ai/ha", "result": 40},
      {"measurement": "Observed Response, Herbicide mixture with Compound 1", "setting": "[10]; [14]", "result": 99},
      {"measurement": "Observed Response, Herbicide alone", "setting": "[10]; herbicide 10 g ai/ha", "result": 98},
      {"measurement": "Observed Response, Herbicide mixture with Compound 1", "setting": "[10]; [15]", "result": 99},
      {"measurement": "Observed Response, Herbicide alone", "setting": "[10]; herbicide 20 g ai/ha", "result": 99},
      {"measurement": "Observed Response, Herbicide mixture with Compound 1", "setting": "[11]; [14]", "result": 83},
      {"measurement": "Observed Response, Herbicide alone", "setting": "[11]; herbicide 10 g ai/ha", "result": 78},
      {"measurement": "Observed Response, Herbicide mixture with Compound 1", "setting": "[11]; [15]", "result": 87},
      {"measurement": "Observed Response, Herbicide alone", "setting": "[11]; herbicide 20 g ai/ha", "result": 87}
    ]},
    {"compound": "COC(=O)c1c(Cl)nn(C)c1S(=O)(=O)NC(=O)Nc1nc(OC)cc(OC)n1", "note": "[Halosulfuron-methyl, halosulfuron-methyl]", "values": [
      {"measurement": "Observed Response, Herbicide mixture with Compound 1", "setting": "[1]; [16]", "result": 10},
      {"measurement": "Observed Response, Herbicide alone", "setting": "[1]; herbicide 17.5 g ai/ha", "result": 37}
    ]},
    {"compound": "CC(C)C1(C)N=C(c2nc3ccccc3cc2C(=O)O)NC1=O", "note": "(centres unmarked) [Imazaquin, imazaquin]", "values": [
      {"measurement": "Observed Response, Herbicide mixture with Compound 1", "setting": "[1]; [16]", "result": 100},
      {"measurement": "Observed Response, Herbicide alone", "setting": "[1]; herbicide 17.5 g ai/ha", "result": 100}
    ]},
    {"compound": "COC(=O)c1ccc(I)cc1S(=O)(=O)NC(=O)Nc1nc(C)nc(OC)n1", "note": "[Iodosulfuron-methyl, iodosulfuron-methyl]", "values": [
      {"measurement": "Observed Response, Herbicide mixture with Compound 1", "setting": "[1]; [16]", "result": 57},
      {"measurement": "Observed Response, Herbicide alone", "setting": "[1]; herbicide 17.5 g ai/ha", "result": 100}
    ]},
    {"compound": "COC(=O)c1ccc(CNS(C)(=O)=O)cc1S(=O)(=O)NC(=O)Nc1nc(OC)cc(OC)n1", "note": "[Mesosulfuron-methyl, mesosulfuron-methyl]", "values": [
      {"measurement": "Observed Response, Herbicide mixture with Compound 1", "setting": "[1]; [16]", "result": 100},
      {"measurement": "Observed Response, Herbicide alone", "setting": "[1]; herbicide 17.5 g ai/ha", "result": 100}
    ]},
    {"compound": "CCCOc1nn(C(=O)[N-]S(=O)(=O)c2ccccc2C(=O)OC)c(=O)n1C.[Na+]", "note": "[Propoxycarbazone-sodium, propoxycarbazone]", "values": [
      {"measurement": "Observed Response, Herbicide mixture with Compound 1", "setting": "[1]; [17]", "result": 100},
      {"measurement": "Observed Response, Herbicide alone", "setting": "[1]; herbicide 35 g ai/ha", "result": 100}
    ]},
    {"compound": "COC(=O)c1cccc(C)c1S(=O)(=O)NC(=O)Nc1nc(OCC(F)(F)F)nc(N(C)C)n1", "note": "[Triflusulfuron-methyl, triflusulfuron-methyl]", "values": [
      {"measurement": "Observed Response, Herbicide mixture with Compound 1", "setting": "[1]; [17]", "result": 100},
      {"measurement": "Observed Response, Herbicide alone", "setting": "[1]; herbicide 35 g ai/ha", "result": 100}
    ]},
    {"compound": "Imazamethabenz", "values": [
      {"measurement": "Observed Response, Herbicide mixture with Compound 1", "setting": "[1]; [16]", "result": 100},
      {"measurement": "Observed Response, Herbicide alone", "setting": "[1]; herbicide 17.5 g ai/ha", "result": 100}
    ]}
  ]
}
